What was measured:
[1] = PK parameter estimates, 30 mg/kg po (Table 1); assay type: in vivo, rats; conditions: additional series of bioavailability experiments
Procedure: The bioavailability of compound N is depicted in FIG. 10 as well. |(NRTs Dosed 30 mg/kg po in 1% Methyl Cellulose, n = 3 rats/NRT)

SK-N-MC cells = experiment: TNF-α induced flux of reactive oxygen species (DCF fluorescence); assay type: cell-based; conditions: 100 μM test compound, TNF-α 3.0 ng/mL
Text: Oxidative stress agents (OSA) are thought to be involved in cell death in IBD and are key initiator in the cascade of events leading to apoptosis. The purpose of this study is to evaluate the effect of Compound A on cytokine-induced OSA flux.
To visualize OSA, the dye dihydrodichlorofluorescein diacetate is used. This non-fluorescent dye is taken up by cells and deacetylated to its non-fluorescent congener dihydrodichlorofluorescein (H2 DCF), which is trapped within cells. Reactive oxygen species ("ROS") react with H2 DCF, converting it to the highly fluorescent DCF. DCF fluorescence can be measured spectrofluorometrically and can also be visualized in intact cells using fluorescent microscopy.
SK-N-MC cells (American Type Culture Collection, Rockville, Md.) were plated at 250,000 cells/well in 24-well Corning plates. Following plating, the cells were maintained in retinoic acid medium (5 μM) for five days and then treated with at test compound at 100 μM for 1 hour prior to TNF-α (3.0 ng/mL) treatment. […] Following incubation, cultures were read in a cytofluorometer at 485-530 nm wavelength to detect increased DCF formation. Relative fluorescence units (RFU) values for the respective treatment conditions were compared. In this assay, higher fluorescence readings indicate ROS production. Thus, reductions in fluorescence indicates reduction in ROS production.

bioavailability (in words) [1]: excellent bioavailability
Compound: CC(=O)Nc1ccc(C(=O)NC(C)(C)C)cc1 [Compound A, N-tert-butyl-4-acetamidobenzamide]
ROS induction by TNF-α (SK-N-MC cells): significantly reduced these effects
